{"source": "ChEMBL document CHEMBL4052796", "about": "“Design, synthesis and biological evaluation of dual acetylcholinesterase and phosphodiesterase 5A inhibitors in treatment for Alzheimer's disease” (Bioorg Med Chem Lett, 2017)", "key": {"Acetylcholinesterase": {"target": "Acetylcholinesterase (Homo sapiens, UniProt P22303)", "sequence (P22303 whole entry)": "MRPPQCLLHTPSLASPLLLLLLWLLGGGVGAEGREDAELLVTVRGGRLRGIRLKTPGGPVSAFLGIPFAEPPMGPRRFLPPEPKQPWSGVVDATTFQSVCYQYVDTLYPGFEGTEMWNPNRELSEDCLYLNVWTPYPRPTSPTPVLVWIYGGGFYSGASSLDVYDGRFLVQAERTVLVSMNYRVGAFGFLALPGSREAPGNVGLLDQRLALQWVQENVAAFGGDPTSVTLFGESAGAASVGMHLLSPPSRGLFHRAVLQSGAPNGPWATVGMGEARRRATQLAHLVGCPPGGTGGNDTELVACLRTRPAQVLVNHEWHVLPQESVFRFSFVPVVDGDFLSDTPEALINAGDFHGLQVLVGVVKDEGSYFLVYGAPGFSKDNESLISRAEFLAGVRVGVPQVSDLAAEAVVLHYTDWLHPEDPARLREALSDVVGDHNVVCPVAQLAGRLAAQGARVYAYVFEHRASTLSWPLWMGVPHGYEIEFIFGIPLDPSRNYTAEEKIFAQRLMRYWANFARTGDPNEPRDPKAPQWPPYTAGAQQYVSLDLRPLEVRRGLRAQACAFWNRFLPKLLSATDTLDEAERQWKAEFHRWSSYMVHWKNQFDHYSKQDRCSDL", "experiment": "Inhibition of AChE (unknown origin) using acetylthiocholine as substrate by Ellman's method"}, "[1]": {"target": "cGMP-specific 3',5'-cyclic phosphodiesterase (Homo sapiens, UniProt O76074)", "experiment": "Inhibition of human PDE5A preincubated for 30 mins followed by TMB substrate addition by spectrophotometry"}, "A549": {"tested_on": "A549", "experiment": "Cytotoxicity against human A549 cells at 50 ug/ml after 24 hrs by CCK-8 assay", "format": "cell-based", "settings": "a549, 24 h"}}, "data": [{"smiles": "Cc1ccc2c(c1)C(=O)C(=O)N2C(=O)c1ccccc1", "values": [{"measurement": "IC50", "setting": "Acetylcholinesterase", "result": "> 1", "unit": "µM"}, {"measurement": "IC50", "setting": "[1]", "result": 746, "unit": "µM"}]}, {"smiles": "CCN(CC)Cc1ccc(NC(=O)c2ccccc2)c(C(=O)C(=O)N(CC)CC)c1", "values": [{"measurement": "IC50", "setting": "Acetylcholinesterase", "result": 0.0447, "unit": "µM"}, {"measurement": "Activity", "setting": "A549", "result": "Non-Toxic"}, {"measurement": "IC50", "setting": "[1]", "result": 158, "unit": "µM"}]}, {"smiles": "COc1ccc(NCc2ccc3c(c2)C(=O)C(=O)N3C(=O)c2ccccc2)cc1", "values": [{"measurement": "IC50", "setting": "Acetylcholinesterase", "result": 0.17, "unit": "µM"}, {"measurement": "IC50", "setting": "[1]", "result": 100, "unit": "µM"}]}, {"smiles": "Cc1ccc2c(c1)CC(=O)N2C(=O)c1ccccc1", "values": [{"measurement": "IC50", "setting": "Acetylcholinesterase", "result": "> 1", "unit": "µM"}, {"measurement": "IC50", "setting": "[1]", "result": 91.2, "unit": "µM"}]}, {"smiles": "Cc1ccc2c(c1)C(=O)C(=O)N2Cc1ccccc1[N+](=O)[O-]", "values": [{"measurement": "IC50", "setting": "Acetylcholinesterase", "result": 0.2, "unit": "µM"}, {"measurement": "IC50", "setting": "[1]", "result": 200, "unit": "µM"}]}, {"smiles": "O=C1C(=O)N(C(=O)c2ccccc2)c2ccc(CN3CCCCC3)cc21", "values": [{"measurement": "IC50", "setting": "Acetylcholinesterase", "result": 0.0794, "unit": "µM"}, {"measurement": "Activity", "setting": "A549", "result": "Non-Toxic"}, {"measurement": "IC50", "setting": "[1]", "result": 50, "unit": "µM"}]}, {"smiles": "O=C1C(=O)N(Cc2ccc(Br)cc2)c2ccc(Br)cc21", "values": [{"measurement": "IC50", "setting": "Acetylcholinesterase", "result": 0.0891, "unit": "µM"}, {"measurement": "IC50", "setting": "[1]", "result": 131, "unit": "µM"}]}, {"smiles": "Cc1ccc2c(c1)C(=O)C(=O)N2Cc1ccc(Br)cc1", "values": [{"measurement": "IC50", "setting": "Acetylcholinesterase", "result": 0.204, "unit": "µM"}]}, {"smiles": "COC(=O)C(=O)c1cc(C)ccc1NC(=O)c1ccccc1", "values": [{"measurement": "IC50", "setting": "Acetylcholinesterase", "result": "> 1", "unit": "µM"}]}, {"smiles": "O=C(Nc1ccc(CN2CCOCC2)cc1C(=O)C(=O)N1C(=O)CCC1=O)c1ccccc1", "values": [{"measurement": "IC50", "setting": "Acetylcholinesterase", "result": 0.229, "unit": "µM"}]}, {"smiles": "CN1CCN(Cc2ccc3c(c2)C(=O)C(=O)N3C(=O)c2ccccc2)CC1", "values": [{"measurement": "IC50", "setting": "Acetylcholinesterase", "result": 0.0479, "unit": "µM"}, {"measurement": "IC50", "setting": "[1]", "result": "> 1000", "unit": "µM"}]}, {"smiles": "O=C(O)CCC(=O)NCc1ccc2c(c1)CC(=O)N2C(=O)c1ccccc1", "values": [{"measurement": "IC50", "setting": "Acetylcholinesterase", "result": "> 1", "unit": "µM"}, {"measurement": "IC50", "setting": "[1]", "result": 17.6, "unit": "µM"}]}, {"smiles": "Cc1ccc2c(c1)C(=O)C(=O)N2C(=O)N(C)C", "values": [{"measurement": "IC50", "setting": "Acetylcholinesterase", "result": 0.144, "unit": "µM"}, {"measurement": "Activity", "setting": "A549", "result": "Non-Toxic"}, {"measurement": "IC50", "setting": "[1]", "result": 100, "unit": "µM"}]}, {"smiles": "O=C1C(=O)N(C(=O)c2ccccc2)c2ccc(CNc3ccc(Br)cc3)cc21", "values": [{"measurement": "IC50", "setting": "Acetylcholinesterase", "result": 0.398, "unit": "µM"}]}, {"smiles": "O=C1C(=O)N(Cc2ccccc2[N+](=O)[O-])c2ccc(Br)cc21", "values": [{"measurement": "IC50", "setting": "Acetylcholinesterase", "result": 0.263, "unit": "µM"}]}]}
